Legend:
Assay in all cases: relative viability (nuclei count vs DMSO), 5 days (fraction); higher = more cells survive
[1] = compound: CN(C)C/C=C/C(=O)Nc1cc2c(Nc3ccc(F)c(Cl)c3)ncnc2cc1O[C@H]1CCOC1 [Afatinib] + Nc1ncn([C@H]2C[C@H](O)[C@@H](CO)O2)c(=O)n1 [Decitabine] (partner 2 µM)
Summary of the method: (§1)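 Lung cancer cell lines were seeded in 1536-well plates and dosed by pin tool the next day, with either a single drug or a fixed anchor-drug dose combined with five library-drug doses (not always all listed) spaced in √10 steps. Five days later, one step fixed the cells and stained their nuclei (final 0.05% Triton X-100, 1% formaldehyde, 1 ug/ml Hoechst), and nuclei were counted on 4× images. Relative viability is the nuclei count in treated wells divided by the count in vehicle wells, and each value is the median of duplicate plates.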

[2] = compound: CN(C)C/C=C/C(=O)Nc1cc2c(Nc3ccc(F)c(Cl)c3)ncnc2cc1O[C@H]1CCOC1 [Afatinib] + CS(=O)(=O)CCNCc1ccc(-c2ccc3ncnc(Nc4ccc(OCc5cccc(F)c5)c(Cl)c4)c3c2)o1 [Lapatinib] (partner 2 µM)
Summary of the method: as §1

[3] = compound: CN(C)C/C=C/C(=O)Nc1cc2c(Nc3ccc(F)c(Cl)c3)ncnc2cc1O[C@H]1CCOC1 [Afatinib] + Cc1cc(Nc2cc(N3CCN(C)CC3)nc(Sc3ccc(NC(=O)C4CC4)cc3)n2)n[nH]1 [Tozasertib] (partner 0.1 µM)
Summary of the method: as §1

[4] = compound: CN(C)C/C=C/C(=O)Nc1cc2c(Nc3ccc(F)c(Cl)c3)ncnc2cc1O[C@H]1CCOC1 [Afatinib] + C[C@@H](Oc1cc(-c2cnn(C3CCNCC3)c2)cnc1N)c1c(Cl)ccc(F)c1Cl [Crizotinib] (partner 1 µM)
Summary of the method: as §1

| Cell Line | relative viability ([1]; first compound 0.005 µM) | relative viability ([1]; first compound 0.01581 µM) | relative viability ([1]; first compound 0.05 µM) | relative viability ([1]; first compound 0.1581 µM) | relative viability ([1]; first compound 0.5 µM) | relative viability ([2]; first compound 0.005 µM) | relative viability ([2]; first compound 0.01581 µM) | relative viability ([2]; first compound 0.05 µM) | relative viability ([2]; first compound 0.1581 µM) | relative viability ([2]; first compound 0.5 µM) | relative viability ([3]; first compound 0.005 µM) | relative viability ([3]; first compound 0.01581 µM) | relative viability ([3]; first compound 0.05 µM) | relative viability ([3]; first compound 0.1581 µM) | relative viability ([3]; first compound 0.5 µM) | relative viability ([4]; first compound 0.005 µM) | relative viability ([4]; first compound 0.01581 µM) | relative viability ([4]; first compound 0.05 µM) | relative viability ([4]; first compound 0.1581 µM) | relative viability ([4]; first compound 0.5 µM) |
| --- | --- | --- | --- | --- | --- | --- | --- | --- | --- | --- | --- | --- | --- | --- | --- | --- | --- | --- | --- | --- |
| PC-3 [JPC-3] | 0.564 | 0.52 | 0.553 | 0.449 | 0.492 | 0.445 | 0.425 | 0.428 | 0.472 | 0.416 | 0.443 | 0.416 | 0.428 | 0.291 | 0.37 | 0.51 | 0.453 | 0.447 | 0.4 | 0.355 |
| PC-14 | 0.14 | 0.17 | 0.137 | 0.171 | 0.218 | 0.295 | 0.222 | 0.258 | 0.301 | 0.288 | 0.228 | 0.257 | 0.254 | 0.232 | 0.247 | 0.419 | 0.275 | 0.257 | 0.239 | 0.242 |
| RERF-LC-KJ | 0.646 | 0.613 | 0.673 | 0.501 | 0.635 | 0.83 | 0.919 | 0.849 | 0.834 | 0.83 | 0.502 | 0.611 | 0.575 | 0.424 | 0.484 | 0.921 | 0.842 | 0.801 | 0.731 | 0.705 |
| SK-LU-1 | 0.641 | 0.674 | 0.661 | 0.621 | 0.619 | 1.33 | 0.89 | 0.803 | 0.941 | 0.915 | 0.332 | 0.32 | 0.355 | 0.322 | 0.277 | 1.07 | 0.731 | 0.879 | 1.12 | 0.842 |
| SK-MES-1 | 0.27 | 0.322 | 0.309 | 0.312 | 0.316 | 0.423 | 0.393 | 0.459 | 0.444 | 0.467 | 0.928 | 0.897 | 0.723 | 0.613 | 0.532 | 0.977 | 0.879 | 0.626 | 0.485 | 0.466 |
| SW 1573 | 0.434 | 0.422 | 0.542 | 0.497 | 0.528 | 1.03 | 1.09 | 1.14 | 1.07 | 1.27 | 0.16 | 0.175 | 0.202 | 0.158 | 0.171 | 0.963 | 0.885 | 1.01 | 0.683 | 0.75 |
| UMC-11 | 0.664 | 0.602 | 0.584 | 0.554 | 0.63 | 1.07 | 0.919 | 0.846 | 0.802 | 1 | 0.206 | 0.199 | 0.198 | 0.207 | 0.187 | 0.679 | 0.558 | 0.557 | 0.629 | 0.71 |
